“Also recorded” adds a separate entry of the source.
How the values were obtained:
[1] = system: thrombin (IIa)/thrombomodulin (TM) complex, TM+CS; test: In vitro aPC generation assay in solution, IIa/TM complex with TM containing chondroitin sulfate side chains (TM+CS, TMCS); assay type: biochemical, rabbit or human; details: for effect of heparinoid on aPC generation with high doses of PF4 and histones: conditions simulating late sepsis; for effect of heparinoid on aPC generation at low levels of histones: histones 0-10 μg/ml, heparinoid 2, 5 or 10 μg/ml; for effect of heparinoid on aPC generation at low levels of histones / effect of heparinoid on aPC generation at higher levels of histones: FIG. 7; for effect of heparinoid on aPC generation at higher levels of histones: histones >10 μg/ml; for increase of aPC generation by PF4 in absence of histones: TMCS 0.5 nM, FIG. 6A
Protocol: (§1) Generation of aPC was assayed in 96-well plates as described previously (Slungaard et al. (1994) J. Biol. Chem., 269:25549-25556; Slungaard et al. (1993) J. Clin. Invest., 91:1721-1730). Briefly, thrombomodulin (TM) was mixed with various amounts of PF4 and/or heparin for 10 minutes in assay buffer (final concentration, 20 mM Tris, 100 mM NaCl, 1 mM CaCl2, 0.1% BSA, pH 7.5). Protein C (PC) was added for an additional 10 minutes followed by addition of thrombin (IIa) at a final concentration of either 0.2 or 2 nM and 15 minutes of incubation. All incubations were done at 37° C. Final concentrations of TM and PC were 0.5 nM and 500 nM, respectively.
Generation of aPC was assayed in 96-well plates generally as described above. Briefly, rabbit or human sTMCS or sTM−CS, was mixed with various amounts of histones, PF4 and/or heparinoid for 10 minutes in assay buffer (final concentration, 20 mM Tris, 100 mM NaCl, 1 mM CaCl2, 0.1% BSA, pH 7.5). Final concentrations of TMs were 0.5-40 nM. PC (final concentration, 500 nM) was added for an additional 10 minutes followed by addition of IIa at a final concentration of 0.2 or 2 nM and then incubated for 15 minutes. All incubations were done at 37° C. The reaction was quenched with 1 mM EDTA and 100 nM hirudin. Concentrations of aPC formed in the quenched samples were inferred from initial rate measurements after the addition of 0.5 mM S2366. Initial rates of chromogenic substrate cleavage were determined by measuring absorbance at 405 nm using a ThermoMax™ Microtiter Vmax® plate reader (Molecular Devices; Sunnyvale, Calif.).

plasma aPC = test: In vivo aPC generation measured in mouse plasma; details: for effect of heparinoid on aPC generation after histones: histones 50 mg/kg
Protocol: Generation of aPC in vivo was assayed in plasma of mice as described (Kowalska et al. (2007) Blood 110:1903-1905). Mice were injected into the jugular vein. After 10 minutes, blood was drawn into sodium citrate/benzamidine (final concentration, 5 mM/50 mM, respectively), centrifuged for 10 minutes at 4500 g at 4° C., and plasma was frozen. Plasma aPC levels were subsequently measured by capture ELISA using antimouse aPC antibody and chromogenic substrate Spectrozyme® PCa (American Diagnostica) (Li et al. (2005) J. Thromb. Haemost., 3:1351-1359).
In vivo aPC generation was assayed in plasma of mice generally as described above. […] After 10 minutes, blood was drawn into sodium citrate/benzamidine (final concentration 5 mM/50 mM, respectively), centrifuged for 10 minutes at 5,000 rpm at 4° C. and plasma frozen. […] Some animals were pre-injected with UFH or ODSH 10 minutes before injection of histones. Plasma aPC levels were measured by capture ELISA (Li et al. (2005) J. Thromb. Haemost., 3:1351-1359) using an anti-mouse aPC antibody and chromogenic substrate Spectrozyme® PCa (American Diagnostica; Stamford, Conn.).

mice = test: Histone-induced lethality in mice; assay type: in vivo, mouse; details: heparinoid 50 mg/kg, histones 75 mg/kg, WT mice
[2] = aPTT in mouse plasma after injection of heparinoids with or without histones; assay type: in vivo; details: for severe prolongation of aPTT in presence of high (sub-lethal and lethal) concentrations of histones: heparinoid 50 mg/kg 10 minutes before histones, WT mice, FIG. 9B
Protocol: Blood was collected from cut tails 20 minutes after injection of heparinoids and aPTT measured in plasma. FIG. 9A: WT mice were injected with control buffer (at 0 mg/kg heparanoid concentrations) or UFH (dark squares) or ODSH (open triangles) at the concentrations indicated. FIG. 9B: WT mice were injected with control buffer (open circles) or 50 mg/kg of either UFH (black square) or ODSH (gray triangles) 10 minutes before injection of increasing concentrations of histones. N=5 mice per data point. Mean±1 SD are shown.

antithrombin = details: Fryer et al. (1997); cited from earlier work
[3] = system: thrombin (IIa)/thrombomodulin (TM) complex; test: In vitro aPC assay in solution, on human TM expressing HEK293 and on primary endothelial cells; assay type: cell-based
Protocol: as §1
To measure aPC formation, HEK-K293 cells stably expressing human TM on their surface cells were allowed to adhere overnight onto 24-well plates (5×10^5 cells/well) in DMEM/F12 media containing 10% FBS (Feistritzer et al. (2006) J. Biol. Chem., 281:20077-20084). Cells were washed twice with DMEM/F12 media followed by Dulbecco PBS. Various concentrations of PF4 or protamine sulfate (PRT) were incubated with cells for 10 minutes at 37° C. followed by the addition of PC and IIa, as described above. After incubation for 45 minutes, aliquots of the reaction mixture were transferred to 96-well plates and quenched by the addition of 1 mM EDTA and 100 nM hirudin. Generation of aPC was measured after the addition of 0.5 mM […] and determination of the initial rate of chromogenic substrate cleavage from absorbance measurements at 405 nm on a Thermomax™ Microtiter Vmax® plate reader (Molecular Devices).

[4] = WT mice, heparinoid 50 mg/kg, FIG. 8

2-O, 3-O desulfated heparin [ODSH]
effect of heparinoid on aPC generation with high doses of PF4 and histones [1]: enhanced aPC generation | effect of heparinoid on aPC generation at low levels of histones [1]: inhibited aPC generation | effect of heparinoid on aPC generation at higher levels of histones [1]: restored high levels of aPC generation | effect of heparinoid on aPC generation after histones (plasma aPC; [4]): suppressed detectable aPC generation | aPC levels in mice pretreated with heparinoid (plasma aPC; heparinoid 50 mg/kg, histones 75 mg/kg, WT mice, FIG. 8): aPC levels were raised | effect of heparinoid on histone lethality (mice): prevent these deaths | severe prolongation of aPTT in presence of high (sub-lethal and lethal) concentrations of histones [2]: reversed | dose required to markedly prolong the aPTT ([2]; non-histone treated mice, FIG. 9A): the same as needed to reverse histone lethality | antithrombin activity, fold less (antithrombin): ~60 fold

protamine sulfate [PRT]
shape of aPC generation versus protamine sulfate concentration ([3]; FIG. 1C): bell-shape curve

platelet factor 4 [PF4]
potency on aPC activity compared with histones ([1]; FIGS. 2C and 2D): more potent than histones | increase of aPC generation by PF4 in absence of histones ([1]; PF4 3 μg/ml): > 3 fold | increase of aPC generation by PF4 in absence of histones ([1]; PF4 25 μg/ml): around 7 fold | PF4 concentration at peak of bell-shape curve of aPC generation ([3]; FIG. 1A): around 50 μg/ml | maximal increase of aPC generation ([3]; at peak of biphasic curve): ~6 times | PF4 concentration at peak of biphasic curve of aPC generation ([3]; in solution, human TM expressing HEK293, primary endothelial cells): around 25 μg/ml | effect of concurrently injected PF4 on plasma aPC (plasma aPC; PF4 knockout mice, PF4 5 mg/kg with IIa and histones, FIG. 4, 5 mg/kg): further increases the generation of aPC in plasma; also recorded: higher aPC levels

heparin
effect of heparin in absence of the GLA-domain of Protein C ([1]; Gla-domainless Protein C, TM+CS, FIG. 3E): did not have any effect | effect of heparin on histones/PF4 mediated aPC generation ([1]; TM+CS, PF4 50 μg/ml, histones 75 μg/ml, FIGS. 3B and 3C): first enhances aPC generation before a decrease in aPC generation | effect of UFH on peak aPC generation from histone plus PF4 ([1]; UFH 5 μg/ml, PF4 50 μg/ml, FIG. 6C): shifted to the right | effect of heparinoid on aPC generation with high doses of PF4 and histones [1]: enhanced aPC generation | effect of heparinoid on aPC generation at low levels of histones [1]: inhibited aPC generation | effect of heparin on aPC generation at below peak concentration of histones ([1]; histones 3 μg/ml, TM+CS, FIG. 2F): only decreased aPC generation | effect of heparinoid on aPC generation at higher levels of histones [1]: restored high levels of aPC generation | heparin concentration of optimal effect on aPC generation ([1]; histones present in excess (75 μg/ml), TM+CS, FIGS. 2E and 2F): 5 μg per ml | effect of heparin on aPC generation at low concentrations of PF4 ([3]; PF4 12.5 μg/ml, FIG. 1B): decreases aPC generation | effect of heparin on aPC generation at an excess of PF4 ([3]; PF4 400 μg/ml, FIG. 1B): shifts the curve back to the optimal PF4 concentration | effect of heparin on aPC generation at lower than optimal protamine sulfate concentration ([3]; PRT 1 μg/ml, FIG. 1D): only decreases aPC generation | effect of heparin on aPC generation at higher concentrations of PRT ([3]; PRT 20 μg/ml, FIG. 1D): a peak and then a decrease in aPC | effect of added heparin on histone curve for aPC generation ([3]; absence or presence of PF4): shifted the curve for aPC generation to the right | effect of heparinoid on aPC generation after histones (plasma aPC; [4]): suppressed detectable aPC generation | effect of heparinoid on histone lethality (mice): prevent these deaths | effect on aPTT in mice not exposed to histones ([2]; concentrations 10 and 100-times lower than needed to reverse histone lethality, FIG. 9A): marked prolongation of aPTT | severe prolongation of aPTT in presence of high (sub-lethal and lethal) concentrations of histones [2]: not by the UFH
